# “And” between values parts separate entries of the source, which are not always exact repeats. Equal entries are not always repeated. Marks after values point to notes of the source that are not given here.
# Legend:
# Type in all cases: cell-based
# [1] = tested on: Staphylococcus aureus (ATCC 25923); test: Disk sensitivity test (modified Kirby-Bauer), S. aureus;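 note: Compound-loaded filter disks on LB agar plates seeded with a confluent bacterial lawn, compound dissolved in DMSO, plates kept overnight at 37 °C, then inhibition zone around disk measured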
# Method: (§1) Filter disks were provided as sterile filter paper (about 6 mm in diameter) and spotted with 20 μL of a selected compound. Each compound was initially dissolved in dimethylsulfoxide (DMSO); any subsequent dilutions were also made in DMSO. Each filter was placed on an LB agar plate spread with 100 μL of a bacterial culture that had been grown overnight in suitable LB broth. Plates were incubated overnight at 37° C., after which, the extent of growth inhibition around each filter disk was measured. Bacterial strains included Staphylococcus aureus (ATCC 25923), Pseudomonas aeruginosa PAO1, Bacillus subtilis W168 and Escherichia coli HB101. […] The latter two strains are non-pathogenic Gram-positive and Gram-negative bacterial strains, respectively.
# Bacillus subtilis W168 [2] = test: Disk sensitivity test (modified Kirby-Bauer), B. subtilis;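 note: Compound-loaded filter disks on LB agar plates seeded with a bacterial lawn, plates held overnight at 37 °C, then the clear zone around each disk measured, compounds in DMSO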
# Method: as §1
# [3] = tested on: Pseudomonas aeruginosa PAO1; test: Disk sensitivity test (modified Kirby-Bauer), P. aeruginosa;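 note: Compound-loaded filter disks on LB agar lawns, DMSO as solvent, zone of inhibition around each disk read after overnight incubation at 37 °C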
# Escherichia coli HB101 [4] = test: Disk sensitivity test (modified Kirby-Bauer), E. coli;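 note: filter disk loaded with compound in DMSO laid on an LB agar bacterial lawn, kept overnight at 37 °C, then the inhibition zone around the disk is measured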
# Method: as §1
# [5] = tested on: Staphylococcus aureus (ATCC 25923); test: Minimum inhibitory concentration in LB broth, S. aureus; conditions: for Relative to AgNO3: efficacy per mole from MIC values
# Bacillus subtilis W168 [6] = test: Minimum inhibitory concentration in LB broth, B. subtilis; conditions: for Relative to AgNO3: efficacy per mole from MIC values
# [7] = tested on: Pseudomonas aeruginosa PAO1; test: Minimum inhibitory concentration in LB broth, P. aeruginosa; conditions: for Relative to AgNO3: efficacy per mole from MIC values
# Escherichia coli HB101 [8] = test: Minimum inhibitory concentration in LB broth, E. coli; conditions: for Relative to AgNO3: efficacy per mole from MIC values;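 for all read-outs here: broth dilution MIC, test compounds first taken up in DMSO, then serially diluted in LB medium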
# [9] = tested on: Gram positive and Gram negative bacteria; test: Antimicrobial activity, summary of TABLES 16-18
# Method: The new class of fluorinated triazapentadiene compounds with and without metal complexation as described herein were analyzed for antibacterial activity against several bacterial strains (both Gram positive and Gram negative). Methods for antimicrobial analysis included a modified Kirby-Bauer method and a determination of their minimum inhibitory concentrations. In brief, the modified Kirby-Bauer method relied on placement of a filter disk impregnated with a desired compound on a solid growth medium. Bacteria were grown to a confluent lawn and the extent of growth inhibition was measured (e.g., as an extent/percentage of a clear zone on the disk and/or solid medium).
# For MIC assessment, compounds were initially dissolved in DMSO and serial dilutions of soluble compounds were made in LB broth.
structure (smiles),measurement,setting,value
Fc1c(F)c(F)c(N=C(N=C([N]([Ag])c2c(F)c(F)c(F)c(F)c2F)C(F)(F)C(F)(F)C(F)(F)F)C(F)(F)C(F)(F)C(F)(F)F)c(F)c1F [[N{(C3F7)C(C6F5)N}2]Ag],Diameter of the zone of growth inhibition,[1]; 5.7 × 10^0 mM,33.0 mm
same,Diameter of the zone of growth inhibition,[1]; 5.7 × 10^1 mM,70.0 mm
same,Diameter of the zone of growth inhibition,[1]; 5.7 × 10^−1 mM,39.0 mm
same,Diameter of the zone of growth inhibition,[1]; 5.7 × 10^−2 mM,21.5 mm
same,Diameter of the zone of growth inhibition,[1]; 5.7 × 10^−3 mM,10.0 mm
same,Diameter of the zone of growth inhibition,[1]; 5.7 × 10^−4 mM,6.0 (NZ)^b mm
same,Diameter of the zone of growth inhibition,[1]; 5.7 × 10^−5 mM,6.0 (NZ) mm
same,Diameter of the zone of growth inhibition,[1]; 5.7 × 10^−6 mM,6.0 (NZ) mm
same,Diameter of the zone of growth inhibition,Bacillus subtilis W168 [2]; 5.7 × 10^0 mM,37.0 mm
same,Diameter of the zone of growth inhibition,Bacillus subtilis W168 [2]; 5.7 × 10^1 mM,47.0 mm
same,Diameter of the zone of growth inhibition,Bacillus subtilis W168 [2]; 5.7 × 10^−1 mM,38.0 mm
same,Diameter of the zone of growth inhibition,Bacillus subtilis W168 [2]; 5.7 × 10^−2 mM,22.0 mm
same,Diameter of the zone of growth inhibition,Bacillus subtilis W168 [2]; 5.7 × 10^−3 mM,11.0 mm
same,Diameter of the zone of growth inhibition,Bacillus subtilis W168 [2]; 5.7 × 10^−4 mM,7.5 mm
same,Diameter of the zone of growth inhibition,Bacillus subtilis W168 [2]; 5.7 × 10^−5 mM,6.0 (NZ) mm
same,Diameter of the zone of growth inhibition,Bacillus subtilis W168 [2]; 5.7 × 10^−6 mM,6.0 (NZ) mm
same,Diameter of the zone of growth inhibition,[3]; 5.7 × 10^0 mM,16.5 mm
same,Diameter of the zone of growth inhibition,[3]; 5.7 × 10^1 mM,27.0 mm
same,Diameter of the zone of growth inhibition,[3]; 5.7 × 10^−1 mM,12.0 mm
same,Diameter of the zone of growth inhibition,[3]; 5.7 × 10^−2 mM,8.0 mm
same,Diameter of the zone of growth inhibition,[3]; 5.7 × 10^−3 mM,7.5 mm
same,Diameter of the zone of growth inhibition,[3]; 5.7 × 10^−4 mM,6.0 (NZ) mm
same,Diameter of the zone of growth inhibition,[3]; 5.7 × 10^−5 mM,6.0 (NZ) mm
same,Diameter of the zone of growth inhibition,[3]; 5.7 × 10^−6 mM,6.0 (NZ) mm
same,Diameter of the zone of growth inhibition,Escherichia coli HB101 [4]; 5.7 × 10^0 mM,14.0 mm
same,Diameter of the zone of growth inhibition,Escherichia coli HB101 [4]; 5.7 × 10^1 mM,18.0 mm
same,Diameter of the zone of growth inhibition,Escherichia coli HB101 [4]; 5.7 × 10^−1 mM,11.0 mm
same,Diameter of the zone of growth inhibition,Escherichia coli HB101 [4]; 5.7 × 10^−2 mM,8.5 mm
same,Diameter of the zone of growth inhibition,Escherichia coli HB101 [4]; 5.7 × 10^−3 mM,8.0 mm
same,Diameter of the zone of growth inhibition,Escherichia coli HB101 [4]; 5.7 × 10^−4 mM,6.0 (NZ) mm
same,Diameter of the zone of growth inhibition,Escherichia coli HB101 [4]; 5.7 × 10^−5 mM,6.0 (NZ) mm
same,Diameter of the zone of growth inhibition,Escherichia coli HB101 [4]; 5.7 × 10^−6 mM,6.0 (NZ) mm
same,MIC,[5],1.80 μg/ml and 2.13 × 10^−3 mM
same,Relative to AgNO3,[5],34.45
same,MIC,Bacillus subtilis W168 [6],1.80 μg/ml and 2.13 × 10^−3 mM
same,Relative to AgNO3,Bacillus subtilis W168 [6],69.01
same,MIC,[7],23.69 μg/ml and 2.80 × 10^−2 mM
same,sensitivity of the bacteria to the compound (in words),[7],most sensitive
same,Relative to AgNO3,[7],6.57 × 10^−1
same,MIC,Escherichia coli HB101 [8],23.69 μg/ml and 2.80 × 10^−2 mM
same,sensitivity of the bacteria to the compound (in words),Escherichia coli HB101 [8],most sensitive
same,Relative to AgNO3,Escherichia coli HB101 [8],2.10
same,antimicrobial activity (in words),[9],Effective
"FC(F)(F)C(F)(F)C(F)(F)C(=Nc1c(Cl)cccc1Cl)N=C([N]([Ag])c1c(Cl)cccc1Cl)C(F)(F)C(F)(F)C(F)(F)F [[N{(C3F7)C(2,6-Cl2C6H3)N}2]Ag]",Diameter of the zone of growth inhibition,[1]; 5.7 × 10^0 mM,16.5 mm
same,Diameter of the zone of growth inhibition,[1]; 5.7 × 10^1 mM,20.0 mm
same,Diameter of the zone of growth inhibition,[1]; 5.7 × 10^−1 mM,15.0 mm
same,Diameter of the zone of growth inhibition,[1]; 5.7 × 10^−2 mM,14.5 mm
same,Diameter of the zone of growth inhibition,[1]; 5.7 × 10^−3 mM,11.0 mm
same,Diameter of the zone of growth inhibition,[1]; 5.7 × 10^−4 mM,6.0 (NZ) mm
same,Diameter of the zone of growth inhibition,[1]; 5.7 × 10^−5 mM,6.0 (NZ) mm
same,Diameter of the zone of growth inhibition,Bacillus subtilis W168 [2]; 5.7 × 10^0 mM,21.0 mm
same,Diameter of the zone of growth inhibition,Bacillus subtilis W168 [2]; 5.7 × 10^1 mM,19.5 mm
same,Diameter of the zone of growth inhibition,Bacillus subtilis W168 [2]; 5.7 × 10^−1 mM,18.0 mm
same,Diameter of the zone of growth inhibition,Bacillus subtilis W168 [2]; 5.7 × 10^−2 mM,19.0 mm
same,Diameter of the zone of growth inhibition,Bacillus subtilis W168 [2]; 5.7 × 10^−3 mM,12.0 mm
same,Diameter of the zone of growth inhibition,Bacillus subtilis W168 [2]; 5.7 × 10^−4 mM,6.0 (NZ) mm
same,Diameter of the zone of growth inhibition,Bacillus subtilis W168 [2]; 5.7 × 10^−5 mM,6.0 (NZ) mm
same,Diameter of the zone of growth inhibition,[3]; 5.7 × 10^0 mM,13.5 mm
same,Diameter of the zone of growth inhibition,[3]; 5.7 × 10^1 mM,15.0 mm
same,Diameter of the zone of growth inhibition,[3]; 5.7 × 10^−1 mM,10.0 mm
same,Diameter of the zone of growth inhibition,[3]; 5.7 × 10^−2 mM,7.0 mm
same,Diameter of the zone of growth inhibition,[3]; 5.7 × 10^−3 mM,6.0 (NZ) mm
same,Diameter of the zone of growth inhibition,Escherichia coli HB101 [4]; 5.7 × 10^0 mM,16.0 mm
same,Diameter of the zone of growth inhibition,Escherichia coli HB101 [4]; 5.7 × 10^1 mM,15.5 mm
same,Diameter of the zone of growth inhibition,Escherichia coli HB101 [4]; 5.7 × 10^−1 mM,11.0 mm
same,Diameter of the zone of growth inhibition,Escherichia coli HB101 [4]; 5.7 × 10^−2 mM,9.0 mm
same,Diameter of the zone of growth inhibition,Escherichia coli HB101 [4]; 5.7 × 10^−3 mM,7.0 mm
same,MIC,[5],0.853 μg/ml and 1.12 × 10^−2 mM
same,Relative to AgNO3,[5],69.43
same,MIC,Bacillus subtilis W168 [6],4.27 × 10^−1 μg/ml and 5.31 × 10^−4 mM
same,Relative to AgNO3,Bacillus subtilis W168 [6],276.84
same,MIC,[7],72.20 μg/ml and 8.98 × 10^−2 mM
same,sensitivity of the bacteria to the compound (in words),[7],most sensitive
same,Relative to AgNO3,[7],2.05 × 10^−1
same,MIC,Escherichia coli HB101 [8],72.20 μg/ml and 8.98 × 10^−2 mM
same,sensitivity of the bacteria to the compound (in words),Escherichia coli HB101 [8],most sensitive
same,Relative to AgNO3,Escherichia coli HB101 [8],6.56 × 10^−1
same,antimicrobial activity (in words),[9],Effective
